According to EP0698025B1, “AMPA ANTAGONISTS AND A METHOD OF TREATMENT THEREWITH” (NEUROSEARCH A/S, priority 1993, dated 1994):

What was measured:
[1] = target: AMPA receptor; experiment: AMPA receptor binding affinity (as described by T. Honoré et al., Neuroscience Letters 54, 27-32 (1985)); settings: binding affinity for the AMPA receptor
[2] = system: AMPA-induced clonic seizures; experiment: In vivo AMPA seizure test (AMPA-induced clonic seizures); design: species or system female NMRI mice; settings: Mus musculus; dose inhibiting 50% of the mice from having clonic seizures; test compound i.v. 5 min (or p.o. 30 min) before 0.3 µg icv AMPA; route not given
Protocol: Also compounds of the present invention when adminestered i.v. or i.p. in the in vivo AMPA seizure test as described below inhibit the clonic seizures induced by AMPA.
AMPA given icv (intracerebroventricular) (15 µg/kg) NMRI to mice induces clonic seizures which should be inhibited by non-NMDA receptor antagonists. Method: Test compound was given i.v. 5 min (or p.o. 30 min) before a 0.3 µg icv administration of AMPA to 10 female NMRI mice (weighing 24-26 g) per dose. The number of mice experiencing clonic seizures within the next 5 min was noted. An ED50 value was calculated as the dose inhibiting 50% of the mice from having clonic seizures.

CCN1Cc2c(-c3ccccc3)cc3c(c2C1)NC(=O)C3=NO [Compound 13]
IC50 [1]: 100 nM

CN1CCc2c(-c3ccc([N+](=O)[O-])cc3)cc3c(c2C1)NC(=O)C3=NO [Compound 10, 8-methyl-5-(4-nitrophenyl)-6,7,8,9-tetrahydro-1H-pyrrolo[3,2-h]isoquinoline-2,3-dione 3-oxime]
ED50 [2]: 5 mg/kg | IC50 [1]: 150 nM

CN1CCc2c(-c3ccccc3)cc3c(c2C1)NC(=O)C3=NO [Compound 9, 8-methyl-5-phenyl-6,7,8,9-tetrahydro-1H-pyrrolo[3,2-h]isoquinoline-2,3-dione 3-oxime]
IC50 [1]: 200 nM

CN1Cc2c(-c3ccc([N+](=O)[O-])cc3)cc3[nH]c(=O)c(=O)[nH]c3c2C1 [Compound 3]
IC50 [1]: 600 nM
